Here are results for 29 compounds from patent US20230114241A1, “METHODS OF TREATING EPILEPSY USING THE SAME” (Trevena, Inc., priority 2019, published 2023).

human sphingosine-1-phosphate receptor 1 (S1P1), sequence (P21453 whole entry): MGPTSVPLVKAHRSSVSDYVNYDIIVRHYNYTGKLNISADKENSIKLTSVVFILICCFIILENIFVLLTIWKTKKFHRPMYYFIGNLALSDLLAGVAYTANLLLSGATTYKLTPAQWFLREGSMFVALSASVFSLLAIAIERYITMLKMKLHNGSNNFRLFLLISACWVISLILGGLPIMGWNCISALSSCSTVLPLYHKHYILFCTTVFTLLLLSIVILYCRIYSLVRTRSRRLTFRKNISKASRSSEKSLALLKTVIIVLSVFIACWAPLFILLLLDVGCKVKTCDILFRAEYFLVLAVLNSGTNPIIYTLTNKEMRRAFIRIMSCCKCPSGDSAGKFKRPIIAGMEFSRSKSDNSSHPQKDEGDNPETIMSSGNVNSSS

This test has as its target human sphingosine-1-phosphate receptor 1 (S1P1) (Homo sapiens, UniProt P21453). The test is described as follows: Inhibition of cAMP production (HTRF cAMP HiRange), S1P1 CHO-K1 cells. It is filed as cell-based. Particulars: inhibition of cAMP production; potency; read-out: hS1P1 CAMP pEC50 (converted). The procedure: Stable clonal Chinese hamster ovary K1 (CHO-K1) cells co-expressing EA-β-arrestin2 and the human sphingosine-1-phosphate receptor 1 (NM_001400, S1P1) with a C-terminal Prolink™ tag were purchased from DiscoverX corporation (Cat #: 93-0207C2).
Cell lines were cultured in AssayComplete™ Media 6 (DiscoverX Corporation, Cat #: 920018GF2) at 37° C. and 5% CO2 in a humidified CO2 and temperature-controlled incubator. To begin assay plating, cells were washed with Dulbecco's phosphate buffered saline (CellGro, Cat #: 21-031-CV) and lifted from the culturing flask by incubation (37° C., 5 min) with CellStripper (Cellgro, Cat #: 25-056-CI). […] Plated cells were incubated overnight at 37° C. and 5% CO2 in a humidified CO2 and temperature-controlled incubator.
Agonist-promoted G-protein responses were determined by measuring changes in intracellular cAMP using the HTRF® cAMP HiRange kit (CisBio, Cat #: 62AM6PEJ) based on time-resolved fluorescence resonance energy transfer (TR-FRET) technology. […] Following a 30-minute incubation at 37° C. and 5% CO2 in a humidified CO2 and temperature-controlled incubator, the components of the cAMP HiRange kit were added as per the manufacturer's instructions. After an hour incubation at room temperature, plates were analyzed by a BMG PheraStar microplate reader.
These values are normalized to fingolimod, a known agonist of the sphingosine-1-phosphate 1 receptor.
For the compound `COc1ccc(-c2noc(-c3ccc4c(c3)nnn4C3CCCC3)n2)c2ccccc12` [Compound 91, 1-cyclopentyl-5-[3-(4-methoxynaphthalen-1-yl)-1,2,4-oxadiazol-5-yl]-1H-1,2,3-benzotriazole], the EC50 is greater than 316 nM. In the case of `Cc1ccncc1-c1noc(-c2ccc3c(c2)nnn3C2CC2)n1` [Compound 94, 1-cyclopropyl-5-[3-(4-methylpyridin-3-yl)-1,2,4-oxadiazol-5-yl]-1H-1,2,3-benzotriazole], the EC50 was greater than 316 nM. Turning to `Cc1ccccc1-c1noc(-c2ccc3c(c2)nnn3C2CCOCC2)n1` [Compound 95, 5-[3-(2-methylphenyl)-1,2,4-oxadiazol-5-yl]-1-(oxan-4-yl)-1H-1,2,3-benzotriazole], the EC50 is greater than 316 nM. In the case of `Brc1ccccc1-c1nc(-c2ccc3[nH]nnc3c2)no1` [Compound 97, 3-(1H-benzo[d][1,2,3]triazol-5-yl)-5-(2-bromophenyl)-1,2,4-oxadiazole], the EC50 is greater than 316 nM. As for `Brc1ccccc1-c1nc(-c2ccc3c(c2)nnn3CC2CC2)no1` [Compound 98, 5-(2-bromophenyl)-3-(1-(cyclopropylmethyl)-1H-benzo[d][1,2,3]triazol-5-yl)-1,2,4-oxadiazole], the figure is greater than 316 nM; as for `Cc1ccncc1-c1nc(-c2ccc3c(c2)nnn3C(C)C)no1` [Compound 100, 3-(1-isopropyl-1H-benzo[d][1,2,3]triazol-5-yl)-5-(4-methyl-pyridin-3-yl)-1,2,4-oxadiazole], greater than 316 nM; as for `Cc1ccncc1-c1noc(-c2ccc3c(c2)nnn3C(C)C)n1` [Compound 101, 5-[3-(4-methylpyridin-3-yl)-1,2,4-oxadiazol-5-yl]-1-(propan-2-yl)-1H-1,2,3-benzotriazole], less than 316 nM. Consider `O=C1CCOc2ccc(-c3nc(-c4cccnc4)no3)cc21` [Compound 102, 6-[3-(pyridin-3-yl)-1,2,4-oxadiazol-5-yl]-3,4-dihydro-2H-1-benzopyran-4-one], for which the EC50 was greater than 316 nM.

Turning to `CCC1(CC)CC(=O)c2cc(-c3nnc(-c4cccnc4)s3)ccc2O1` [Compound 104, 2,2-diethyl-6-(5-(pyridin-3-yl)-1,3,4-thiadiazol-2-yl)chroman-4-one], the EC50 was less than 316 nM. `CCC1(CC)CC(=O)c2cc(-c3nc(-c4ccc(O)nc4)no3)ccc2O1` [Compound 105, 2,2-diethyl-6-[3-(6-hydroxy-3-pyridyl)-1,2,4-oxadiazol-5-yl]chroman-4-one]: the EC50 was greater than 316 nM. As for `CCC1(CC)CC(=O)c2cc(-c3nc(-c4ccc(S(N)(=O)=O)cc4)no3)ccc2O1` [Compound 106, 4-(5-(2,2-diethyl-4-oxochroman-6-yl)-1,2,4-oxadiazol-3-yl)benzenesulfonamide], the figure is less than 316 nM; as for `CC(C)Nc1ccc(-c2nc(-c3ccc4c(c3)CC(=O)N4)no2)cc1C#N` [Compound 107, 2-(isopropylamino)-5-(3-(2-oxoindolin-5-yl)-1,2,4-oxadiazol-5-yl)benzonitrile], less than 316 nM.

Regarding `COc1cccc(-c2cnc(-c3ccc4c(c3)nnn4C(C)C)s2)c1` [Compound 108, 2-(1-isopropyl-1H-benzo[d][1,2,3]triazol-5-yl)-5-(3-methoxy-phenyl)thiazole], the EC50 was less than 316 nM.

As to `COc1ccc(-c2cnc(-c3ccc4c(c3)nnn4C(C)C)s2)cc1` [Compound 109, 2-(1-isopropyl-1H-benzo[d][1,2,3]triazol-5-yl)-5-(4-methoxy-phenyl)thiazole], the EC50 is greater than 316 nM. `CC(C)n1nnc2cc(-c3ncc(-c4cccc(F)c4)s3)ccc21` [Compound 110, 5-(3-fluorophenyl)-2-(1-isopropyl-1H-benzo[d][1,2,3]triazol-5-yl)thiazole]: the EC50 is greater than 316 nM. For the compound `CCC1(CC)CC(=O)c2cc(-c3nc(-c4ccccn4)no3)ccc2O1` [Compound 111, 2,2-diethyl-6-[3-(2-pyridyl)-1,2,4-oxadiazol-5-yl]chroman-4-one], the EC50 was greater than 316 nM. Take `FC(F)(F)c1cc(Br)ccc1-c1noc(-c2ccc3c(c2)nnn3C2CCCC2)n1` [Compound 114, 5-{3-[4-bromo-2-(trifluoromethyl)phenyl]-1,2,4-oxadiazol-5-yl}-1-cyclopentyl-1H-1,2,3-benzotriazole]: the EC50 was greater than 316 nM. As for `Brc1ccccc1-c1nc(-c2ccc3c(c2)nnn3C2CCCCC2)no1` [Compound 115, 5-(2-bromophenyl)-3-(1-cyclohexyl-1H-benzo[d][1,2,3]triazol-5-yl)-1,2,4-oxadiazole], the figure is less than 316 nM; as for `COc1cc(-c2nc(-c3ccc4c(c3)nnn4C(C)C)no2)ccn1` [Compound 116, 3-(1-isopropyl-1H-benzo[d][1,2,3]triazol-5-yl)-5-(2-methoxypyridin-4-yl)-1,2,4-oxadiazole], greater than 316 nM; as for `Cc1ccc(-c2noc(-c3ccc4c(c3)nnn4C3CCCCC3)n2)cc1` [Compound 117, 1-cyclohexyl-5-[3-(4-methylphenyl)-1,2,4-oxadiazol-5-yl]-1H-1,2,3-benzotriazole], greater than 316 nM. With `Cc1ccc(-c2nc(-c3ccc4c(c3)nnn4C(C)C)no2)cn1` [Compound 119, 3-(1-isopropyl-1H-benzo[d][1,2,3]triazol-5-yl)-5-(6-methyl-pyridin-3-yl)-1,2,4-oxadiazole], the EC50 is greater than 316 nM. For the compound `COc1ccccc1-c1nc(-c2ccc3c(c2)nnn3C2CCCC2)no1` [Compound 120, 3-(1-cyclopentyl-1H-benzo[d][1,2,3]triazol-5-yl)-5-(2-methoxyphenyl)-1,2,4-oxadiazole], the EC50 was less than 316 nM. The result for `CC(C)Oc1ccc(-c2nc(-c3ccc4c(c3)nnn4C3CCCC3)no2)cc1` [Compound 121, 3-(1-cyclopentyl-1H-benzo[d][1,2,3]triazol-5-yl)-5-(4-isopropoxyphenyl)-1,2,4-oxadiazole] reads greater than 316 nM. `CC(C)CCn1nnc2cc(-c3nc(-c4ccc(C(F)(F)F)c(F)c4)no3)ccc21` [Compound 122, 5-{3-[3-fluoro-4-(trifluoromethyl)phenyl]-1,2,4-oxadiazol-5-yl}-1-(3-methyl-butyl)-1H-1,2,3-benzotriazole]: the EC50 is greater than 316 nM. Consider `COc1cccc(-c2noc(-c3ccc4c(c3)nnn4C3CCCC3)n2)n1` [Compound 124, 1-cyclopentyl-5-[3-(6-methoxypyridin-2-yl)-1,2,4-oxadiazol-5-yl]-1H-1,2,3-benzotriazole], for which the EC50 was greater than 316 nM.

In the case of `CC(C)n1nnc2cc(-c3noc(C4CCC(F)(F)CC4)n3)ccc21` [Compound 125, 5-[5-(4,4-difluoro-cyclohexyl)-1,2,4-oxadiazol-3-yl]-1-(propan-2-yl)-1H-1,2,3-benzotriazole], the EC50 is greater than 316 nM. As for `Cc1cc(C)cc(Cc2noc(-c3ccc4c(c3)nnn4C(C)C)n2)c1` [Compound 126, 5-{3-[(3,5-dimethyl-phenyl)methyl]-1,2,4-oxadiazol-5-yl}-1-(propan-2-yl)-1H-1,2,3-benzotriazole], the figure is greater than 316 nM. As for `CC(C)n1nnc2cc(-c3noc(C4CCCCC4)n3)ccc21` [Compound 127, 5-(5-cyclohexyl-1,2,4-oxadiazol-3-yl)-1-(propan-2-yl)-1H-1,2,3-benzotriazole], the EC50 is greater than 316 nM.

Take `CC(C)n1nnc2cc(-c3nc(-c4ccc5nncn5c4)no3)ccc21` [Compound 128, 1-(propan-2-yl)-5-(3-{[1,2,4]triazolo[4,3-a]pyridin-6-yl}-1,2,4-oxadiazol-5-yl)-1H-1,2,3-benzotriazole]: the EC50 is greater than 316 nM.
